Measured values from ChEMBL document CHEMBL2203271, “Pharmaceutical composition comprising indole compound for treatment of diseases associated with oxidative stress: patent highlight” (ACS Med Chem Lett, 2012).

Test system: H9c2
Assay: Cytoprotective activity against tBOOH-induced oxidative stress in rat H9c2 cells after 2 hrs by SRB assay
Assay type: functional, cell-based
Conditions: H9c2, 2 h

SMILES | IC50
c1ccc(-c2nc3cccc(NC4CCCC4)c3[nH]2)cc1 | 600 nM
c1ccc(-c2nc3cccc(NC4CCOC4)c3[nH]2)cc1 (configuration not stated) | 2000 nM
